Source: the C3SDB collision cross section collection

Conditions: instrument: DT, single field, calibrated with Agilent tune mix (Agilent)

Row | SMILES | collision cross section (N2) ([M-H]-) [Å²] | collision cross section (N2) ([M+H]+) [Å²] | further results
1 | O=C(O)CC(C(=O)O)C(O)C(=O)O (stereo not drawn) [Isocitrate] | 125.26 | – | –
2 | N[C@@H](C[C@@H](O)C(=O)O)C(=O)O [L-Erythro-4-Hydroxyglutamic acid] | – | 135.8 | collision cross section (N2) ([M-H2O-H]-): 123.86 Å²
3 | C[C@@H]1OC(O)[C@@H](O)[C@H](O)[C@@H]1O (stereo partly drawn) [L-Fucose] | – | – | collision cross section (N2) ([M+Na]+): 144.6 Å²
4 | NC(=O)CC[C@H](N)C(=O)O [L-Glutamine] | – | – | collision cross section (N2) ([M+Na]+): 133.7 Å²
5 | N[C@H](CO)Cc1cnc[nH]1 [L-Histidinol] | 126.11 | 128.3 | –
6 | O=C(O)[C@H](O)[C@@H](O)CO [L-Threonate] | 116.84 | – | –
7 | N[C@@H](Cc1cc(I)c(Oc2cc(I)c(O)c(I)c2)c(I)c1)C(=O)O [L-Thyroxine] | – | 216.2 | collision cross section (N2) ([M+Na-2H]-): 194.19 Å²
8 | CCCCCCCCCCCC(=O)SCCNC(=O)CCNC(=O)[C@H](O)C(C)(C)COP(=O)(O)OP(=O)(O)OC[C@H]1O[C@@H](n2cnc3c(N)ncnc32)[C@H](O)[C@@H]1OP(=O)(O)O [Lauroyl-CoA] | 283.18 | 284 | –
9 | N[C@@H](Cc1cc(I)c(Oc2ccc(O)c(I)c2)c(I)c1)C(=O)O [Liothyronine] | – | 209.7 | collision cross section (N2) ([M+Na-2H]-): 185.23 Å²
10 | N#CC(O)c1ccccc1 (stereo not drawn) [Mandelonitrile] | – | 128.9 | –
11 | COc1ccc2[nH]cc(CCNC(C)=O)c2c1 [Melatonin] | 153.53 | 154.3 | –
12 | CC1=CC(=O)c2ccccc2C1=O [Menadione (Vitamin K3)] | – | 134.6 | –
13 | CC1=CC(=O)c2ccccc2C1=O [Menadione] | 129.79 | – | –
14 | CCCCCCCCCCCCCC(=O)SCCNC(=O)CCNC(=O)C(O)C(C)(C)COP(=O)(O)OP(=O)(O)OC[C@H]1O[C@@H](n2cnc3c(N)ncnc32)[C@H](O)[C@@H]1OP(=O)(O)O (stereo partly drawn) [Myristoyl-coenzyme A] | 290.65 | 289.9 | –
15 | Cn1cc(C(N)=O)ccc1=O [N1-Methyl-2-pyridone-5-carboxamide] | – | 132.1 | –
16 | CN(C)c1nc(=O)c2ncn([C@@H]3O[C@H](CO)[C@@H](O)[C@H]3O)c2[nH]1 [N2,N2-Dimethylguanosine] | 169.16 | 170.6 | –
17 | CC(=O)Nc1ccn([C@@H]2O[C@H](CO)[C@@H](O)[C@H]2O)c(=O)n1 [N4-Acetylcytidine] | 161.4 | 162.7 | –
18 | CC(=O)NCCCC[C@H](N)C(=O)O [N6-Acetyl-L-lysine] | 139.75 | 142.3 | –
19 | CC(=O)N[C@H]1C(O)O[C@H](COP(=O)(O)O)[C@@H](O)[C@@H]1O (stereo partly drawn) [N-Acetyl-D-Glucosamine 6-Phosphate] | 152.83 | – | collision cross section (N2) ([M+Na]+): 164 Å²
20 | CC(=O)N[C@H]1[C@H]([C@H](O)[C@H](O)CO)OC(O)(C(=O)O)C[C@@H]1O (stereo partly drawn) [N-Acetylneuraminic acid] | – | – | collision cross section (N2) ([M+Na]+): 168.6 Å²
21 | CC(=O)Nc1ccccc1 [N-Phenylacetamide] | 124.17 | – | –
22 | NC(=O)N[C@@H](CC(=O)O)C(=O)O [N-carbamoyl-L-aspartate] | – | – | collision cross section (N2) ([M+Na]+): 139.1 Å²
23 | O=C([O-])c1cccnc1 [Nicotinate] | – | 124 | –
24 | CC[C@H](C)[C@@H]1NC(=O)[C@H](Cc2ccc(O)cc2)NC(=O)[C@@H](N)CSSC[C@@H](C(=O)N2CCC[C@H]2C(=O)N[C@@H](CC(C)C)C(=O)NCC(N)=O)NC(=O)[C@H](CC(N)=O)NC(=O)[C@H](CCC(N)=O)NC1=O [Oxytocin] | 294.98 | 303.8 | –
25 | CCCCCCCCCCCCCCCC=O [Palmitaldehyde] | 163.36 | – | –
26 | O=C(O)CNC(=O)Cc1ccccc1 [Phenylacetylglycine] | 147.23 | – | –
27 | CC1=C(C/C=C(\C)CCC[C@H](C)CCC[C@H](C)CCCC(C)C)C(=O)c2ccccc2C1=O [Phylloquinone] | 211.81 | 217.3 | –

Row | SMILES | collision cross section (N2) ([M-H]-) [Å²] | collision cross section (N2) ([M+H]+) [Å²] | further results
28 | CC(C)CCCC(C)CCCC(C)CCCC(C)CC(=O)O (stereo not drawn) [Phytanic acid] | 183.17 | – | –
29 | CCCCCCCCCCCCCC[C@@H](O)[C@@H](O)[C@@H](N)CO [Phytosphingosine] | 180.68 | 196.2 | –
30 | CC(C)CCCC(C)CCCC(C)CCCC(C)C(=O)O (stereo not drawn) [Pristanic acid] | 178.79 | – | collision cross section (N2) ([M+Na]+): 206.3 Å²
31 | CCCCC[C@H](O)/C=C/[C@H]1[C@H](O)CC(=O)[C@@H]1CCCCCCC(=O)O [Prostaglandin E1] | – | – | collision cross section (N2) ([M+Na]+): 198.3 Å²; collision cross section (N2) ([M-H2O-H]-): 181.94 Å²
32 | C=Cc1c(C)c2cc3[nH]c(cc4nc(cc5nc(cc1[nH]2)C(C)=C5CCC(=O)O)C(CCC(=O)O)=C4C)c(C)c3C=C [Protoporphyrin IX] | 245.23 | 241.4 | –
33 | N#C[C@H](O[C@@H]1O[C@H](CO)[C@@H](O)[C@H](O)[C@H]1O)c1ccccc1 [Prunasin] | – | – | collision cross section (N2) ([M+Na]+): 173.7 Å²
34 | Cc1ncc(COP(=O)(O)O)c(C=O)c1O [Pyridoxal 5'-phosphate] | 146.34 | 151.4 | –
35 | O=C(O)C1(O)C[C@@H](O)C(O)[C@H](O)C1 (stereo partly drawn) [Quinate] | 132.25 | – | collision cross section (N2) ([M+Na]+): 150.9 Å²
36 | OC[C@@H](O)C(O)[C@@H](O)CO (stereo partly drawn) [Ribitol] | – | – | collision cross section (N2) ([M+Na]+): 136.3 Å²
37 | Cc1cn([C@@H]2O[C@H](CO)[C@@H](O)[C@H]2O)c(=O)[nH]c1=O [Ribothymidine] | 153.52 | – | collision cross section (N2) ([M+Na]+): 165.6 Å²
38 | O=C(/C=C/c1ccc(O)c(O)c1)O[C@H](Cc1ccc(O)c(O)c1)C(=O)O [Rosmarinic Acid] | 170.26 | – | collision cross section (N2) ([M+Na]+): 195.6 Å²
39 | COc1cc(/C=C/CO)cc(OC)c1O [Sinapyl alcohol] | 146.84 | – | collision cross section (N2) ([M+H-H2O]+): 136.5 Å²
40 | NCCCNCCCCNCCCN [Spermine] | – | 148.2 | –
41 | CCCCCCCCCCCCCCC[C@@H](O)[C@@H](N)CO [Sphinganine] | – | 188 | –
42 | CCCCCCCCCCCCC/C=C/[C@@H](O)[C@@H](N)CO [Sphingosine] | – | 186 | –
43 | CCCCCCCCCCCCCCCCCC(=O)SCCNC(=O)CCNC(=O)[C@H](O)C(C)(C)COP(=O)(O)OP(=O)(O)OC[C@H]1O[C@@H](n2cnc3c(N)ncnc32)[C@H](O)[C@@H]1OP(=O)(O)O [Stearoyl-CoA] | 301.81 | 302.9 | –
44 | CNCC(O)c1ccc(O)cc1 (stereo not drawn) [Synephrine] | – | – | collision cross section (N2) ([M+H-H2O]+): 134.4 Å²
45 | CCCCCCCCCCCCCCCCCCCCCCCC(=O)O [Tetracosanoic acid] | 197.93 | – | –
46 | Cc1ncc(C[n+]2csc(CCO)c2C)c(N)n1 [Thiamine] | 160.3 | 162.4 | –
47 | CC(=O)N[C@H]1[C@@H](OP(=O)(O)OP(=O)(O)OC[C@H]2O[C@@H](n3ccc(=O)[nH]c3=O)[C@H](O)[C@@H]2O)O[C@H](CO)[C@@H](O)[C@@H]1O [UDP-N-acetylglucosamine] | 222 | 208.8 | –
48 | O=c1ccn([C@@H]2O[C@H](COP(=O)(O)OP(=O)(O)OP(=O)(O)O)[C@@H](O)[C@H]2O)c(=O)[nH]1 [Uridine 5'-triphosphate] | 178.55 | – | –
49 | O=C(O)CCC1=C(CC(=O)O)c2cc3nc(cc4[nH]c(cc5[nH]c(cc1n2)c(CC(=O)O)c5CCC(=O)O)c(CC(=O)O)c4CCC(=O)O)C(CC(=O)O)=C3CCC(=O)O [Uroporphyrin I] | 267.79 | 285.1 | –
50 | COc1cc(C=O)ccc1O [Vanillin] | 124.3 | 129.7 | –
51 | CC1=C(C/C=C(\C)CCC[C@H](C)CCC[C@H](C)CCCC(C)C)C(=O)c2ccccc2C1=O [Vitamin K1] | 210.94 | 216.1 | –
52 | O=C(O)c1cc(=O)c2cccc(O)c2[nH]1 [Xanthurenic acid] | 132.51 | 140.5 | –
53 | CC/C=C\C/C=C\C/C=C\CCCCCCCC(=O)O [alpha-Linolenic acid] | 173.07 | 170.7 | –
